In paper PMC12799421, “Inhibition of constitutive activity of the atypical chemokine receptor 3 by the small-molecule inverse agonist VUF16840” (Molecular Pharmacology, 2025):
pEC50, pIC50: −log10 of the molar value.

Experiments:
Assay type in all cases: cell-based
[1] = molecular target: T1, ACKR3 (Homo sapiens, UniProt P25106); test: BRET β-arrestin1 recruitment to ACKR3 in HEK293T cells; settings: for EC50: * VUF16840 as inverse agonist, read-out: β-arrestin1 BRET pEC50 (converted); for IC50: read-out: β-arrestin1 BRET, Inhibition by VUF16840 (pIC50) (converted)
T1 construct: expressed in transfected cells; host or cells: HEK293T
Procedure: (§1) For bioluminescence resonance energy transfer (BRET) experiments, several BRET acceptor constructs were used that consist of the pcDEF3 vector with either GRK2 (NCBI: NM_174710.2), β-arrestin1 (NCBI: NM_174243.3), or β-arrestin2 (NCBI: XM_005220181.4) fused at the C-terminus with a SpeI/NotI linker to mVenus (NCBI: KP666136.1), as previously described.[34]
(§2) For 1·10^6 HEK293T cells, a transfection mix consisting of 2 μg plasmid DNA, 12 μg linear PEI in a total volume of 200 μL 150 mM NaCl was made and thoroughly vortexed. The transfection mix was incubated for 15 minutes and consequently added to a cell suspension with a final concentration of 3·10^5 cells/mL. For functional studies this cell suspension was immediately transferred to a poly-L-lysine-coated white 96-well plate, with 3·10^4 cells per well. […] For BRET-based membrane localization experiments, the 2 μg plasmid DNA consisted of ACKR3-NL (0.05 μg), mVenus-CAAX (0.25 μg), and pcDEF3 vector DNA without insert (1.7 μg).
(§3) Mean pIC50 values were determined by averaging fitted values from individual experiments. Graphs depict the pooled data of all experiments. Similarly, sigmoidal, ligand-induced concentration-dependent activation or inhibition of the proximity between ACKR3 and the protein of interest was analyzed using GraphPad Prism 8, by fitting a 3-parameter concentration-response model to the data, to determine pEC50/pIC50 values. Mean pEC50 values and pIC50 values were determined by averaging fitted values from individual experiments. Graphs depict the pooled data of all experiments, for which values are normalized, per experiment, to the fold difference compared with basal signal.
(§4) HEK293T cells were stimulated with increasing concentrations of VUF15485 or VUF16840 only (A–D), or increasing concentrations of VUF16840 in the presence of 100 nM VUF15485 (E–H). The resulting proximity between ACKR3 and β-arrestin1 (A, E), GRK2 (B, F), or Rab5a (C, G) was determined by bioluminescence resonance energy transfer. Furthermore, an interaction between clathrin A and β-arrestin2 was measured by NLuc complementation, as was determined by quantifying the relative light units (D, H). Depicted data is normalized as fold-basal and represents the mean ± SD of N experiments with triplicate measurements per experiment. N is specified in Supplemental Table 1.

[2] = molecular target: T1, ACKR3; test: NanoBiT-complementation β-arrestin2 recruitment to hACKR3 in HEK293T cells; settings: for EC50: * VUF16840 as inverse agonist, 15 minutes incubation, read-out: β-arrestin2 NanoBit pEC50 (converted)
Procedure: as §2
(§5) Two days after transfection (vide supra), medium was aspirated and cells were reconstituted in HBSS with 0.05% BSA. […] After treating the cell with ligand furimazine was added (310 times diluted from stock concentration). Cells were incubating at 37 °C for another 3 minutes before detection of bioluminescent intensities.
To determine the insurmountable antagonism of VUF16840, medium of transfected cells was aspirated and cells were reconstituted in HBSS with 20 mM HEPES and 0.1% BSA. Cells were incubated with VUF16840 or buffer for 60 minutes after which furimazine was added and cells were incubated for another 5 minutes, all at 37 °C.
(§6) Bioluminescence was measured using the PHERAstar-FSX and is a measure for the relative proximity of LgBiT- and SmBiT-tagged proteins and thus the occurrence of investigated protein–protein interaction.[38]
as §3

[3] = molecular target: T1, ACKR3; test: NanoBiT clathrin A/β-arrestin2 interaction in ACKR3-expressing HEK293T cells
Procedure: as §2, §5, §6
as §4, with “Fig. 5 Inhibition of both constitutive as well as agonist-induced ACKR3 activity by VUF16840. HEK293T” for “HEK293T”

[4] = molecular target: T1, ACKR3; test: ACKR3 signaling and trafficking sensor assays summarised together (β-arrestin1, GRK2, Rab5a, clathrin A)
Procedure: as §2
Next, it was explored whether VUF16840 could also affect a number of additional ACKR3 signaling or trafficking events. Both β-arrestin1 and GRK2 are known to be recruited to hACKR3 upon activation,[10]^,[23]^,[45],[46] and phosphorylation of the C-terminus is found to be crucial for ACKR3 internalization and β-arrestin1/2 recruitment,[10]^,[47]^,[48] mediated at least in part by GRK2.[10]^,[47] Additionally, clathrin A is a structural protein involved in the formation of clathrin-coated vesicles mediating receptor packaging and internalization, whereas Rab5a is a protein highly expressed in early endosomes.[32]^,[49] […] Agonist-induced internalization of ACKR3 was further monitored by measuring the interaction between clathrin A and β-arrestin 2 using a NanoBiT-based protein–protein interaction assay (Fig. 5D).
Fig. 5 Inhibition of both constitutive as well as agonist-induced ACKR3 activity by VUF16840. […] The resulting proximity between ACKR3 and β-arrestin1 (A, E), GRK2 (B, F), or Rab5a (C, G) was determined by bioluminescence resonance energy transfer. Furthermore, an interaction between clathrin A and β-arrestin2 was measured by NLuc complementation, as was determined by quantifying the relative light units (D, H). […]

[5] = molecular target: T1, ACKR3; test: BRET GRK2 recruitment to ACKR3 in HEK293T cells; settings: for EC50: * VUF16840 as inverse agonist, read-out: GRK2 BRET pEC50 (converted)
Procedure: as §1, §2
The sigmoidal concentration-dependent displacement of binding of the probes [^3H]VUF15485 and CXCL12-A647 by unlabeled ligands were analyzed using GraphPad Prism 8, by fitting a one-site binding model to the data, to determine the pIC50. Mean pIC50 values were determined by averaging fitted values from individual experiments. Graphs depict the pooled data of all experiments. Similarly, sigmoidal, ligand-induced concentration-dependent activation or inhibition of the proximity between ACKR3 and the protein of interest was analyzed using GraphPad Prism 8, by fitting a 3-parameter concentration-response model to the data, to determine pEC50/pIC50 values. Mean pEC50 values and pIC50 values were determined by averaging fitted values from individual experiments. […]
Fig. 5 Inhibition of both constitutive as well as agonist-induced ACKR3 activity by VUF16840. […] The resulting proximity between ACKR3 and β-arrestin1 (A, E), GRK2 (B, F), or Rab5a (C, G) was determined by bioluminescence resonance energy transfer. […]

T1 sequence (P25106 whole entry): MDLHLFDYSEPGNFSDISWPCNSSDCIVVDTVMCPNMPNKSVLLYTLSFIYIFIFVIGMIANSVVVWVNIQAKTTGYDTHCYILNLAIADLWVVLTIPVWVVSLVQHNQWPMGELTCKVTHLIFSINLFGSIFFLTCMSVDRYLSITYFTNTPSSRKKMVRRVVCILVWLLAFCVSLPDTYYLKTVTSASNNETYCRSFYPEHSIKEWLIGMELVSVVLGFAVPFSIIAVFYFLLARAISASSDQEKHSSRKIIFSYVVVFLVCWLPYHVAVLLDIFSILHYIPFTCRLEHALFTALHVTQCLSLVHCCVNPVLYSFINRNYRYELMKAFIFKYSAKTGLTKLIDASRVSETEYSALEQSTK

| Structure (SMILES) | EC50 [1] [nM] | EC50 [2] [nM] | pEC50 ([3]; NanoBiT, read-out: EC50, clathrin A/β-arrestin2 interaction) | EC50 ([4]; agonist, range over assays, read-out: pEC50 values, recruitment of β-arrestin1 and GRK2 and translocation toward early endosomes (converted)) [nM] | EC50 [5] [nM] | IC50 ([1]; versus 100 nM CXCL11) [nM] | IC50 ([1]; versus 100 nM CXCL12) [nM] | IC50 ([1]; versus 100 nM VUF15485) [nM] | fashion of inhibition of CXCL12- and CXCL11-mediated β-arrestin2 recruitment (Schild analysis) ([2]; 60 minutes pretreatment with VUF16840) | pIC50 ([2]; inverse agonist, after 30 minutes of incubation, read-out: IC50, inhibition of constitutive β-arrestin2 recruitment to hACKR3 (NanoBiT)) | IC50 ([2]; versus 100 nM VUF15485, read-out: β-arrestin2 NanoBit, Inhibition by VUF16840 (pIC50) (converted)) [nM] | EC50 ([3]; * VUF16840 as inverse agonist, read-out: Clathrin A/ β-arrestin2 binding pEC50 (converted)) [nM] | IC50 ([3]; versus 100 nM VUF15485, read-out: Clathrin A/ β-arrestin2 binding, Inhibition by VUF16840 (pIC50) (converted)) [nM] | IC50 ([4]; 100 nM VUF15485, range over assays, read-out: pIC50 values, inhibition of VUF15485-responses (converted)) [nM] | EC50 ([4]; inverse agonist, range over all assay setups, read-out: pEC50 values, inhibition of constitutive ACKR3-mediated responses (converted)) [nM] | IC50 ([5]; versus 100 nM VUF15485, read-out: GRK2 BRET, Inhibition by VUF16840 (pIC50) (converted)) [nM] |
| --- | --- | --- | --- | --- | --- | --- | --- | --- | --- | --- | --- | --- | --- | --- | --- | --- |
| COc1cc(C(=O)N(CCC2CCCN2C)CC(C)=Cc2ccccc2F)cc(OC)c1OC (stereo not shown) [VUF15485, reference compound] | 39.8 | 15.8 | 8.22 | 7.94 to 39.8 | 25.1 |  |  |  |  |  |  |  |  |  |  |  |
| COc1ccccc1CCNC(=O)C1CN(C2CCCCC2)CCC1NC(=O)c1cc(-c2ccc(F)cc2F)on1 (stereo not shown) [VUF16840] | 5.01 | 15.8 |  |  | 3.16 | 2.51 | 5.01 | 2 | nonsurmountable | 8.20 | 20 | 10 | 50.1 | 2 to 50.1 | 1.58 to 10 | 3.98 |
